Data as given in paper PMC7242257, “Impact of Magnesium Stearate Presence and Variability on Drug Apparent Solubility Based on Drug Physicochemical Properties” (The AAPS Journal, 2020).

Key:
[1] = design: method as in earlier work; conditions: based on BCS classification (20); ref (24), (26), (28), (29), (31), (34), (35), (38); cited from earlier work
[2] = Relative effect of MgSt on drug apparent solubility (shake-flask, physical mixtures); conditions: phosphate buffer pH 6.8
Experimental: Drug solubility studies in the absence and presence of excipient were performed in triplicate using the shake-flask method [41]. Drug excess amount and 2% w/w or 5% w/w of each excipient were weighed and placed in centrifuge tubes. […] The physical mixtures were vortexed for 3 min. Five millilitres of each medium was added in the tubes and the samples were placed in a shaking water bath (37°C, 200 strokes per minute (spm)). […] Filter adsorption studies were performed prior in triplicate for each drug. […] Filtered samples were further diluted (if needed) with the corresponding medium and analysed by HPLC (Supplementary Table I). […] Drug quantification was made based on calibration curves. Standards were formulated from concentrated stock solutions consisting of drug dissolved in MeOH. As changes in the pH of solutions by the presence of the dissolved drug [34] or MgSt [43, 44] may affect drug solubility, the pH of samples after the completion of each experiment was measured. Drug solubility was calculated based on the sample drug concentration measured.
The relative effect (RE) of each excipient on drug apparent solubility was calculated based on Eq.

Relative effect (RE) on drug solubility at 24 h ([2]; 2% Ligamed MF-2-V) [%]	Relative effect (RE) on drug solubility at 24 h ([2]; 2% Ligamed MF-3-V) [%]	SMILES	Solubility (BCS-based class) [1]
		OCCN(CCO)c1nc(N2CCCCC2)c2nc(N(CCO)CCO)nc(N3CCCCC3)c2n1 [DPL, Dipyridamole]	Low (34)
29	27	NC(=O)N1c2ccccc2C=Cc2ccccc21 [CBZ, Carbamazepine]	Low (31)
		CCC(C)n1ncn(-c2ccc(N3CCN(c4ccc(OCC5COC(Cn6cncn6)(c6ccc(Cl)cc6Cl)O5)cc4)CC3)cc2)c1=O (centres unmarked) [ITZ, Itraconazole]	Low (38)
